Tests used:
CHOP = assay: Western blot, CHOP expression in CRL-2813 cells; format: cell-based, human; conditions: 5 μM, 8 hours, Western blot (FIG. 2B)
Procedure: (§1) FIGS. 2A-2B show HRI activators of the present application induce eIF2α phosphorylation and modify its downstream effectors. In FIG. 2A, CRL-2813 cells were treated with 5 μM of each compound for 2 hours, cell lysates were probed with phosphorylated (P-eIF2α) and total eIF2α (T-eIF2α) and β-actin specific antibodies. In FIG. 2B, CRL-2813 cells were treated with 5 μM HRI activators for 8 hours and lysates were immunoblotted with antibodies against CHOP, p27^KiPl, cyclin D1 and β-actin.
(§2) Cells cultured under recommended media conditions were plated and maintained in serum-containing media without antibiotics in 14-cm plates (Nunc) until reaching 70% confluence. Cells were then treated with compounds for 6 h, washed with cold PBS once, and lysed with M-PER Mammalian Protein Extraction Reagent (Pierce) for 30 min on ice. The cell lysates were centrifuged at 12,000 RPM for 15 min and the supernatants were transferred to fresh tubes and the concentrations were determined by BCA (Pierce). Equal amount of proteins were mixed with Laemmli Sample Buffer, heated at 100° C. for 5 min, separated by SDS-PAGE, and probed with anti-phosphoserine-51-eIF2α (Phos-eIF2α), anti-total eIF2α-specific antibodies (Total-eIF2α) (Biosource International, Hopkinton, MA), anti-CHOP, anti-cyclin D1 or anti-actin (Santa Cruz Biotechnology, CA) using procedures substantially similar to previous reports (see e.g., Aktas et al, Mol. Cell. Biol. 17 (1997) 3850-3857).
(§3) Endogenous eIF2α is the best-known substrate of HRI and the upstream regulator of the eIF2·GTP·Met-tRNAi ternary complex abundance, while CHOP expression is a downstream effector of eIF2α phosphorylation. For assessing eIF2α phosphorylation, blotted cell lysates were treated for two hours with vehicle or selected compounds using antibodies specific for the total-eIF2α and the phosphorylated-eIF2α (T-eIF2α and [PhoS^51]-eIF2α), respectively (see e.g., Aktas et al, J. Nutr. 134 (2004) 2487S-2491S) (see FIG. 2A).

cyclin D1 = assay: Western blot, cyclin D1 expression in CRL-2813 cells; format: cell-based, human; conditions: 5 μM, 8 hours, Western blot (FIG. 2B)
Procedure: as §1, §2, §3

human melanoma = conditions: xenograft mice model of human melanoma; cited from earlier work

| Structure (SMILES) | expression of CHOP relative to DMSO (CHOP) | expression of cyclin D1 relative to DMSO (cyclin D1) | melting point | in vivo efficacy (human melanoma) | organ toxicity (human melanoma) |
| --- | --- | --- | --- | --- | --- |
| N#Cc1cc(NC(=O)N[C@H]2C[C@H](Oc3ccc(C(F)(F)F)cc3)C2)cc(C(F)(F)F)c1 [Compound 1-IV, 1-(3-Cyano-5-(trifluoromethyl)phenyl)-3-(trans-3-(4-(trifluoromethyl)phenoxy)cyclobutyl)urea] | increased the expression of CHOP | decreased the expression of cyclin D1 | 191.6 to 193 °C | – | – |
| N#Cc1ccc(NC(=O)N[C@H]2CC[C@H](Oc3ccc(C(F)(F)F)cc3)CC2)cc1F [Compound 5-VI, 1-(4-Cyano-3-fluorophenyl)-3-(trans-4-(4-(trifluoromethyl)phenoxy)cyclohexyl)urea] | increased the expression of CHOP | decreased the expression of cyclin D1 | – | – | – |
| N#Cc1cc(NC(=O)N[C@H]2CC[C@H](Oc3ccc(C(F)(F)F)cc3)CC2)cc(C(F)(F)F)c1 [Compound 1-VI, 1-(3-cyano-5-trifluoromethyl) phenyl-3-(trans-4-(4-(trifluoromethyl)phenoxy)cyclohexyl)urea, reference compound] | increased the expression of CHOP | decreased the expression of cyclin D1 | – | in vivo efficacy | no apparent organ toxicity |
| N#Cc1cc(F)cc(NC(=O)N[C@H]2CC[C@H](Oc3ccc(C(F)(F)F)cc3)CC2)c1 [Compound 4-VI, 1-(3-Cyano-5-fluorophenyl)-3-(trans-4-(4-(trifluoromethyl)phenoxy)cyclohexyl)urea] | increased the expression of CHOP | decreased the expression of cyclin D1 | 237.8 to 240.8 °C | – | – |

From patent US20240076272A1, “Activators of Heme Regulated Inhibitor Kinase (HRI)” (The Brigham and Women`s Hospital, Inc., priority 2019, published 2024)
